Data reported in patent US20130266636A1, “METHODS FOR BLOCKING CELL PROLIFERATION AND TREATING DISEASES AND CONDITIONS RESPONSIVE TO CELL GROWTH INHIBITION” (THE REGENTS OF THE UNIVERSITY OF CALIFORNIA, priority 2010, published 2013).

What was measured:
[1] = tested on: human breast (T47D) carcinoma cell line; experiment: Cell viability assay in T47D cells; type: cell-based
CRAF [2] = molecular target: T1, CRAF (Homo sapiens, UniProt P04049); experiment: Phospho-S338 CRAF immunoblot in XPA-1 cells; type: cell-based; parameters: total CRAF and total MEK of lysates from XPA-1 cells treated with PD0325901, Sorafenib, L-779450, PLX4720, KG5 or KG1; endogenous in cells; host or cells: XPA-1
Method: (§1) FIGS. 6 and 7 illustrate immunoblot analysis of CRAF immunoprecipitated from XPA-1 cells treated with KG5 and KG38.
FIG. 13 illustrates immunoblot analysis of phospho-5338 CRAF, phospho-MEK, total CRAF and total MEK of lysates from XPA-1 cells treated with PD0325901, Sorafenib, L-779450, PLX4720, KG5 or KG1.
(§2) Immunoprecipitation and Immunoblot Analysis Cells were lysed in either NP40 lysis buffer (150 mM NaCl, 50 mM Tris Base pH 7.4, 1% NP40) or RIPA buffer (50 mM Tris pH 7.4, 100 mM NaCl, 0.1% SDS) supplemented with complete protease inhibitor mixture (Roche), 50 mM NaF and 1 mM Na3VO4 and centrifuged at 13,000×g for 10 min at 4° C. Protein concentration was determined by BCA assay. […] of protein were immunoprecipitated with […] of anti-Flag (Sigma), anti-CRAF (BD Pharmingen), anti-Plk1 (Abcam), anti-γ-Tubulin (sigma) or anti-cenpF (Santa Cruz) antibodies overnight at 4° C. followed by capture with 25 μl of protein A/G (Pierce). Beads were washed five times, eluted in boiling Laemmli buffer, resolved on 10% SDS-PAGE and immunoblotting was performed with anti-Plk1 antibody (Abcam), anti-CRAF antibody (BD Pharmingen), anti-Aurora A (Abcam), anti-phospho-S338 CRAF (Cell Signaling), anti-phospho-T210 Plk1 or anti-phospho-T288 Aurora A (Cell signaling) diluted 1:1000. For immunoblot analysis, […] of protein was boiled in […]
Target sequence in this assay (P04049 whole entry): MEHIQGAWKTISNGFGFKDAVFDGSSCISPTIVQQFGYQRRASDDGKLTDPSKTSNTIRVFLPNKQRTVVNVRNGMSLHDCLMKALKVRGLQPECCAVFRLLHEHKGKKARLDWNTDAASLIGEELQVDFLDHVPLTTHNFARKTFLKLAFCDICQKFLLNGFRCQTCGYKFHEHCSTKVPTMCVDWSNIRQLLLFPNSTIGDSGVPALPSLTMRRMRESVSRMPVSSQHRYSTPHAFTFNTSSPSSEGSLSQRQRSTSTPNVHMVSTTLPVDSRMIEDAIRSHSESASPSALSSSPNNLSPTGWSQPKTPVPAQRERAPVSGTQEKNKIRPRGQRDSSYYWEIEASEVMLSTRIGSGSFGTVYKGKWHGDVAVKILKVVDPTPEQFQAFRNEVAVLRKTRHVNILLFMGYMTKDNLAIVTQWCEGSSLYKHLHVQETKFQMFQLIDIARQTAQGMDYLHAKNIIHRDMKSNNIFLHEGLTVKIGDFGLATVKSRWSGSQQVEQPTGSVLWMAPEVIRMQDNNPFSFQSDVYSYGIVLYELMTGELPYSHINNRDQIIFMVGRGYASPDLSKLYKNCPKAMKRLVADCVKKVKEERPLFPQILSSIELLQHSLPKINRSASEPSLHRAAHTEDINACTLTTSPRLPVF

[3] = tested on: human lung (A549) carcinoma cell line; experiment: Cell viability assay in A549 cells; type: cell-based
[4] = tested on: human breast (MDA-MB-231) carcinoma cell line; experiment: Cell viability assay in MDA-MB-231 cells; type: cell-based
[5] = molecular target: RAF dimerization (BRAF and CRAF) (Homo sapiens, UniProt P04049); experiment: RAF dimerization, immunoblot of BRAF and CRAF immunoprecipitates from XPA-1 cells; type: cell-based; parameters: immunoblot analysis of BRAF and CRAF immunoprecipitates from XPA-1 cells; endogenous in cells; host or cells: XPA-1
RAF dimerization (BRAF and CRAF), sequence (P04049 whole entry): as above
Method: as §1
FIG. 14 illustrates immunoblot analysis of BRAF and CRAF immunoprecipitates from XPA-1 cells treated with PD0325901, Sorafenib, L-779450, PLX4720, KG5 or KG1.
as §2

CRAF [6] = molecular target: T1, CRAF; conditions: 293H cells overexpressing catC, indicated amounts for 1 h; cited from earlier work
Target sequence in this assay (P04049 305-648 limits assumed, species assumed): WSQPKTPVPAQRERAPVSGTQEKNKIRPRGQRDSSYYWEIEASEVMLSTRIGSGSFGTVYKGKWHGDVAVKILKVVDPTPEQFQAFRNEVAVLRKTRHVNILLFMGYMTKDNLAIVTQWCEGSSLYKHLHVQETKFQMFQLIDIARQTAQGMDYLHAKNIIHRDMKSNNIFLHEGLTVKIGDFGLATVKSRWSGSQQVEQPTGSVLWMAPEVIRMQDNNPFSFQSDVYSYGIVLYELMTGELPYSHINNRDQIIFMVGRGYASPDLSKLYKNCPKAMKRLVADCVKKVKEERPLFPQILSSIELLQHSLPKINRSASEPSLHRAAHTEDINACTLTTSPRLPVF

A549 cells = experiment: Cell proliferation assay in A549 cells; type: cell-based, human

potency relative to KG5 (cell viability EC50s) ([1]; T47D) | EC50 ([1]; T47D breast cancer cells) | serine 338 phosphorylation on CRAF (CRAF [2]) | potency relative to KG5 (cell viability EC50s) ([3]; A549) | EC50 ([3]; A549 lung cancer cells) | potency relative to KG5 (cell viability EC50s) ([4]; MDA-MB-231) | EC50 ([4]; MDA-MB-231 breast cancer cell viability assays) | RAF dimerization [5] | SMILES | cell viability ([1]; T47D) | cell viability ([3]; A549) | cell viability ([4]; MDA-MB-231) | phosphorylation at S338 (pS338-CRAF immunoblot) (CRAF [6]) | cell proliferation (A549 cells)
more potent than KG5 | approach picomolar (pM) EC50s | prevent | more potent than KG5 | approach picomolar (pM) EC50s | more potent than KG5 | approach picomolar (pM) EC50s | prevent RAF dimerization | CSc1nc(N)cc(Oc2ccc(-c3cnc(Nc4cccc(C(F)(F)F)c4)[nH]3)cc2)n1 [K38-B] | decrease cell viability | decrease cell viability | decrease cell viability | – | –
– | – | – | – | – | – | – | – | CCCS(=O)(=O)Nc1ccc(F)c(C(=O)c2c[nH]c3ncc(Cl)cc23)c1F [PLX4720] | – | – | – | steadily increased | induce proliferation
